From patent US7208482B2, “9-aminoacyl tetracycline compounds and methods of use thereof” (Paratek Pharmaceuticals, Inc., priority 2001, dated 2007)
In brackets after ≈: the same amount, converted by molar mass.

Key:
Test in all cases: MIC, broth microdilution growth inhibition
Format in all cases: cell-based
Conditions in all cases: Mueller-Hinton broth, 5×10^5 CFU/ml, 37° C., 18 h
[1] = system: S. pneumoniae ATCC 49619
Description: (§1) Growth-inhibitory activity was determined on liquid medium by the antibiotic dilution technique using 96-well microtiter system plates containing two-fold dilutions of antibiotic-agent in 0.2 ml. of Mueller-Hinton broth. Plates were inoculated with each test organism to yield a final inoculum of 5×10^5 CFU/ml and were incubated aerobically at 37° C. for 18 h. The MIC was defined as the lowest concentration of antibacterial agent that inhibited development of visible growth in the microdilution wells.

[2] = system: E. coli 1850E
Description: as §1

[3] = system: S. aureus RN450
Description: as §1

[4] = system: S. aureus RN4250
Description: as §1

[5] = system: S. aureus ATCC 29213
Description: as §1

[6] = system: E. hirae ATCC 9790
Description: as §1

[7] = system: M. catarrhalis ATCC 23246
Description: as §1

[8] = system: H. influenzae ATCC 49247
Description: as §1

[9] = system: S. aureus ATCC 13709
Description: as §1

[10] = system: S. pneumoniae 157E
Description: as §1

[11] = system: E. coli ATCC 25933
Description: as §1

MIC [1]	MIC [2]	MIC [3]	MIC [4]	MIC [6]	MIC [7]	MIC [8]	MIC [9]	MIC [10]	MIC [11]	Compound	MIC [5]
0.5 µg/mL (≈ 0.894 µM)	64 µg/mL (≈ 114 µM)	0.25 µg/mL (≈ 0.447 µM)	2 µg/mL (≈ 3.57 µM)	0.25 µg/mL (≈ 0.447 µM)	1 µg/mL (≈ 1.79 µM)	32 µg/mL (≈ 57.2 µM)	0.5 µg/mL (≈ 0.894 µM)	1 µg/mL (≈ 1.79 µM)		CCOC(=O)C(C)Nc1ccc2c(c1O)C(=O)C1=C(O)[C@]3(O)C(=O)C(C(N)=O)=C(O)[C@@H](N(C)C)[C@@H]3[C@@H](O)[C@@H]1[C@H]2C (stereo partly drawn) [Example 2, [4S-(4a,5,5a,6,12a)]-4-(Dimethylamino)-9-[1-(ethoxycarbonyl)ethyl]amino-1,4,4a,5,5a,6,11,12a-octahydro-3,5,10,12,12a-pentahydroxy-6-methyl-1,11-dioxo-2-naphtacenecarboxamide]	
0.5 µg/mL (≈ 0.917 µM)	32 µg/mL (≈ 58.7 µM)	0.5 µg/mL (≈ 0.917 µM)	2 µg/mL (≈ 3.67 µM)	1 µg/mL (≈ 1.83 µM)	2 µg/mL (≈ 3.67 µM)	8 µg/mL (≈ 14.7 µM)	1 µg/mL (≈ 1.83 µM)			CCOC(=O)CNc1ccc2c(c1O)C(=O)C1=C(O)[C@]3(O)C(=O)C(C(N)=O)=C(O)[C@@H](N(C)C)[C@@H]3[C@@H](O)[C@@H]1[C@H]2C [Example 3, [4S-(4a,5,5a,6,12a)]-4-(Dimethylamino)-9-[(ethoxycarbonyl)methyl]amino-1,4,4a,5,5a,6,11,12a-octahydro-3,5,10,12,12a-pentahydroxy-6-methyl-1,11-dioxo-2-naphtacenecarboxamide]	
0.06 µg/mL (≈ 0.11 µM)						2 µg/mL (≈ 3.67 µM)			2 µg/mL (≈ 3.67 µM)	C[C@H]1c2ccc(NCC(=O)N(C)C)c(O)c2C(=O)C2=C(O)[C@]3(O)C(=O)C(C(N)=O)=C(O)[C@@H](N(C)C)[C@@H]3[C@@H](O)[C@@H]21 [Example 4, [4S-(4a,5,5a,6,12a)]-4-(Dimethylamino)-9-[(N,N-dimethylaminocarbonyl)methyl]amino-1,4,4a,5,5a,6,11,12a-octahydro-3,5,10,12,12a-pentahydroxy-6-methyl-1,11-dioxo-2-naphtacenecarboxamide]	0.5 µg/mL (≈ 0.918 µM)

Compound	MIC [1]	MIC [2]	MIC [3]	MIC [4]	MIC [6]	MIC [7]	MIC [8]	MIC [9]	MIC [10]	MIC [11]	MIC [5]
CCOC(=O)CNc1cc(N(C)C)c2c(c1O)C(=O)C1=C(O)[C@]3(O)C(=O)C(C(N)=O)=C(O)[C@@H](N(C)C)[C@@H]3C[C@@H]1C2 [Example 1, [4S-(4a,5a,12a)]-4,7-Bis(dimethylamino)-9-[(ethoxycarbonyl)methyl]amino-1,4,4a,5,5a,6,11,12a-octahydro-3,10,12,12a-tetrahydroxy-1,11-dioxo-2-naphtacenecarboxamide]	32 µg/mL (≈ 57.3 µM)	32 µg/mL (≈ 57.3 µM)	16 µg/mL (≈ 28.6 µM)	16 µg/mL (≈ 28.6 µM)	8 µg/mL (≈ 14.3 µM)	4 µg/mL (≈ 7.16 µM)	32 µg/mL (≈ 57.3 µM)				16 µg/mL (≈ 28.6 µM)
